One series concerns Vγ2Vδ2 type T cells. The following applies: prior art; cited from earlier work.
Series [1] concerns human Vγ2Vδ2 type T cells. Put plainly: Proliferation of Vγ2Vδ2 type T cells in treated peripheral blood mononuclear cells (ratio in CD3 cells). The following applies: day 11, peripheral blood mononuclear cells of volunteer G. The series is classed as cell-based. How it is done: After 12 days, the cells were collected.
10 ml of the peripheral blood collected from a healthy volunteer G was subjected to Ficoll-Paque specific gravity centrifugation to purify the peripheral blood mononuclear cells and they were suspended in a Yssel's medium. The cells were apportioned into a 24-hole plate so that the number of the cells becomes a concentration of 2.5 million/1.5 ml/hole, and then, according to the above-mentioned method, treatments 1 to 5 were conducted as shown in Table 1. […] On the day 11 after conducting the treatment, a ratio of Vγ2Vδ2 type T cells in existing CD3 cells was calculated.

Series [2] relates to normal peripheral blood cells of A. The following applies: treated peripheral bloods of A (after freezing and thawing) and F on normal peripheral blood cells of A.
Procedure: In Test examples, treatment of the peripheral blood by 2-methyl-3-butenyl-1-pyrophosphoric acid or by a salt thereof was conducted as follows unless otherwise specified. Lymphocytes contained in the peripheral blood derived from healthy volunteer were treated so that the final concentration of the pyrophosphoric acid compound was 20 μM, and cultured in a Yssel's medium under conditions of temperature at 37° C. and a carbon dioxide concentration of 5%. […] After 12 days, the cells were collected.
For series [3] the following is noted: for Stable preservation time in solution: neutral aqueous solution.
Series [4] concerns human Vγ2Vδ2 type T cell clones.

Where two headings read alike, the source gives them in different places.

In the case of `C=C(C)CCOP(=O)(O)OP(=O)(O)O` [isopentenyl pyrophosphoric acid], in the series with Vγ2Vδ2 type T cells, the “Concentration required to activate Vγ2Vδ2 type T cells” value is “several hundreds of μM to several mM”.

On to `CCOP(=O)(O)O` [mono ethyl phosphoric acid], for which the “Concentration required to activate Vγ2Vδ2 type T cells” value with Vγ2Vδ2 type T cells is reported as “several hundreds of μM to several mM”.

For `C=CC(C)COP(=O)([O-])OP(=O)([O-])[O-].[Na+].[Na+].[Na+]` (centres unmarked) [sodium salt of 2-methyl-3-butenyl-1-pyrophosphoric acid], the “Vγ2Vδ2 type T cells/CD3 cells” value in series [1] (2 μM sodium salt + interleukin-2 10 U/ml) was determined as 58.3%; in series [1] (20 μM sodium salt + interleukin-2 10 U/ml), 85.5%; in series [1] (200 μM sodium salt + interleukin-2 10 U/ml), 94.5%. In addition, in series [2], the “Cytotoxicity of treated Vγ2Vδ2 type T cells on normal cells” value is listed as “do not attack the normal cells”. Also, the “Dissociation of inorganic pyrophosphoric acid” value in series [3] (acidic range of pH 4 or less) is on record as “observed within a few minutes”. Moreover, the “Stable preservation time in solution” value in series [3] (pH 6 to 7, room temperature) is on record as “more than one week”; in series [3] (pH 6 to 7, −20° C.), “more than one year”. For the same molecule, the “Amount in whose presence the human Vγ2Vδ2 type T cells proliferate” value in series [4] was “several hundreds μM”. Further, the “Amount that can stimulate the cells” value in series [4] (human Vγ2Vδ2 type T cell clones) was “several hundreds nM to several tens μM”.
